Patent publication US20100247658A1, “ORGANIC COMPOUNDS” (priority 2007, published 2010)

Key:
[1] = prior to micronisation
[2] = micronised, heated for 5 hours at 70° C. in a thermal oven; cited from earlier work

C[N+]1(C)CCC(OC(=O)C(O)(c2ccccc2)C2CCCC2)C1.[Br-] (centres unmarked) [glycopyrrolate, 3-[(cyclopentyl-hydroxyphenylacetyl)oxy]-1,1-dimethyl-pyrrolidinium bromide]
dispersive surface energy [1]: 48 mJ/m^2

salbutamol sulfate
recrystallisation of amorphous parts / stable product [2]: failed to lead to recrystallisation
